Assay results published in ChEMBL document CHEMBL4396868, “Discovery of Potent, Selective, and Brain-Penetrant 1 H-Pyrazol-5-yl-1 H-pyrrolo[2,3- b]pyridines as Anaplastic Lymphoma Kinase (ALK) Inhibitors” (J Med Chem, 2019).
Active and inactive are the calls of the source. The calls are words filed in the database; no cut-off is given here.

Experiments:
[1] = target: Insulin receptor (Homo sapiens) (UniProt P06213); experiment: Inhibition of IRK (unknown origin) at 100 nM by [gamma-33P]ATP-based radiometric or Alphascreen assay relative to control
[2] = target: ALK tyrosine kinase receptor (Homo sapiens, UniProt Q9UM73)
Description: Inhibition of human ALK kinase domain (1058 to 1620 residues) expressed in baculovirus expression system using biotin-poly-GT as substrate pre-incubated for 10 mins followed by ATP addition and measured after 60 mins by HTRF method

[3] = target: T1, High affinity nerve growth factor receptor (Homo sapiens, UniProt P04629); experiment: Inhibition of N-terminal GST-tagged human TrkA kinase domain (436 to 790 residues) expressed in baculovirus expression system using biotin-poly-GT as substrate pre-incubated for 5 mins followed by ATP addition and measured after 60 mins by alpha screen assay
MDR1 (ABCB1, P-gp) = MDR1 (ABCB1, P-gp) (Homo sapiens, UniProt P08183); experiment: Substrate activity at human MDR1 expressed in pig LLC-PK1 cells assessed as efflux ratio of apparent permeability across basolateral to apical over apical to basolateral side at 10 uM after 2 hrs by LC/MS/MS analysis; format: ADME, cell-based
Focal adhesion kinase 1 [4] = target: T2, Focal adhesion kinase 1 (Homo sapiens, UniProt Q05397); experiment: Inhibition of human FAK kinase domain (411 to 686 residues) expressed in baculovirus expression system using biotin-poly-GT as substrate pre-incubated for 10 mins followed by ATP addition and measured after 60 mins by HTRF method
Target sequence in this assay (Q05397 whole entry, the tested form may be a part): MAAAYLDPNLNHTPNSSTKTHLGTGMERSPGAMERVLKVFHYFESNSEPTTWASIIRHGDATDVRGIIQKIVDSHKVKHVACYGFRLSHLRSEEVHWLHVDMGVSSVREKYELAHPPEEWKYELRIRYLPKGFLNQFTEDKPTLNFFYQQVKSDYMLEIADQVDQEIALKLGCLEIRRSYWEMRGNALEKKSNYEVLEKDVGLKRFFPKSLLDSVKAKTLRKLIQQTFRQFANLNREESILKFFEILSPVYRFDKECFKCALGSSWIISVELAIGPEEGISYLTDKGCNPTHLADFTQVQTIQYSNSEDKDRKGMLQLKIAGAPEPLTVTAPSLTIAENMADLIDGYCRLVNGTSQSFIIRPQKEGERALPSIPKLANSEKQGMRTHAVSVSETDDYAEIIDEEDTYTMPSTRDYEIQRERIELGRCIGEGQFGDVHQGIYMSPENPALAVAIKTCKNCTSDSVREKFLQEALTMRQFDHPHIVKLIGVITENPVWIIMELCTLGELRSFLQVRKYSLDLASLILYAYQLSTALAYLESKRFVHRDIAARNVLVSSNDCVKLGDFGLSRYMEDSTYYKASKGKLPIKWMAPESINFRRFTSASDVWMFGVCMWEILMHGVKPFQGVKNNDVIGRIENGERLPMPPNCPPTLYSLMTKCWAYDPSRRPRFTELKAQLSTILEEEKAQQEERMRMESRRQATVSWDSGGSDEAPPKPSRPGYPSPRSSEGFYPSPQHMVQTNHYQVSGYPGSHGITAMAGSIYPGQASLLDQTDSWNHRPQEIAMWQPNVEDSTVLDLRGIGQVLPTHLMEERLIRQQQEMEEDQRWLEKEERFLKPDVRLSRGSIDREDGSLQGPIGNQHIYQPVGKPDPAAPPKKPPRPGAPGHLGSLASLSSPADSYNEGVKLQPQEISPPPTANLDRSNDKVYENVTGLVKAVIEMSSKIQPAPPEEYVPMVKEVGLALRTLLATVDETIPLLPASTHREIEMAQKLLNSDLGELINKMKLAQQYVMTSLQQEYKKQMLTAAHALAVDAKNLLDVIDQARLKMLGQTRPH

Homo sapiens = species: Homo sapiens; experiment: Selectivity ratio of IC50 for human FAK kinase domain (411 to 686 residues) expressed in baculovirus expression system to IC50 for human ALK kinase domain (1058 to 1620 residues) expressed in baculovirus expression system
Focal adhesion kinase 1 [5] = target: T2, Focal adhesion kinase 1; experiment: Inhibition of full-length N-terminal FLAG-tagged FAK (unknown origin) expressed in baculovirus expression system at 100 nM preincubated for 5 mins followed by ATP addition and measured after 60 mins by alphascreen assay relative to control
[6] = target: Aurora kinase B (Homo sapiens) (UniProt Q96GD4); experiment: Inhibition of N-terminal His6-tagged AuroraB (unknown origin) expressed in baculovirus expression system at 100 nM using aurora peptide as substrate preincubated for 5 mins followed by [gamma-33P]ATP addition and measured after 60 mins by topcount scintillation counting method relative to control
[7] = target: cAMP-dependent protein kinase catalytic subunit alpha (Homo sapiens) (UniProt P17612); experiment: Inhibition of PKA (unknown origin) expressed in Escherichia coli at 100 nM using PKA substrate peptide preincubated for 5 mins followed by [gamma-33P]ATP addition and measured after 10 mins by topcount scintillation counting method relative to control
[8] = target: T1, High affinity nerve growth factor receptor; experiment: Inhibition of TRKA (unknown origin) at 100 nM by [gamma-33P]ATP-based radiometric or Alphascreen assay relative to control
[9] = target: Casein kinase I isoform delta (Homo sapiens) (UniProt P48730); experiment: Inhibition of CK1delta (unknown origin) at 100 nM by [gamma-33P]ATP-based radiometric or Alphascreen assay relative to control
[10] = target: MAP kinase-activated protein kinase 2 (Homo sapiens) (UniProt P49137); experiment: Inhibition of MAPKAPK2 (unknown origin) at 100 nM by [gamma-33P]ATP-based radiometric or Alphascreen assay relative to control
[11] = target: Dual specificity mitogen-activated protein kinase kinase 1 (Homo sapiens) (UniProt Q02750); experiment: Inhibition of N-terminal GST-fused MEK1 (unknown origin) expressed in FreeStyle 293 cells at 100 nM using GST-ERK1(K71A) as substrate preincubated for 5 mins followed by [gamma-33P]ATP addition and measured after 20 mins by topcount scintillation counting method relative to control
[12] = target: Cell division cycle 7-related protein kinase (Homo sapiens) (UniProt O00311); experiment: Inhibition of CDC7 (unknown origin) at 100 nM by [gamma-33P]ATP-based radiometric or Alphascreen assay relative to control
[13] = target: Phosphatidylinositol 4,5-bisphosphate 3-kinase catalytic subunit alpha isoform (Homo sapiens) (UniProt P42336); experiment: Inhibition of PI3Kalpha (unknown origin) at 100 nM by [gamma-33P]ATP-based radiometric or Alphascreen assay relative to control
[14] = target: Hepatocyte growth factor receptor (Homo sapiens) (UniProt P08581); experiment: Inhibition of recombinant human N-terminal GST-fused/His6-tagged c-MET (956 to 1390 residues) expressed in baculovirus infected Spodoptera frugiperda cells at 100 nM preincubated for 5 mins followed by ATP addition and measured after 10 mins by alphascreen assay relative to control
[15] = target: Interleukin-1 receptor-associated kinase 4 (Homo sapiens) (UniProt Q9NWZ3); experiment: Inhibition of IRAK4 (unknown origin) at 100 nM by [gamma-33P]ATP-based radiometric or Alphascreen assay relative to control
[16] = target: Tyrosine-protein kinase JAK1 (Homo sapiens) (UniProt P23458); experiment: Inhibition of JAK1 (unknown origin) at 100 nM by [gamma-33P]ATP-based radiometric or Alphascreen assay relative to control
[17] = Fraction unbound in ICR mouse brain at 1 umol/L measured for 16 to 20 hrs by equilibrium dialysis based LC-MS/MS analysis; format: ADME, tissue-based; conditions: 1 µM
[18] = Drug level in Jcl-ICR mouse plasma at 100 mg/kg, ip measured at 0.5 hrs by LC/MS/MS analysis; format: ADME, organism-based
[19] = Drug level in Jcl-ICR mouse plasma at 100 mg/kg, ip measured at 1 hr by LC/MS/MS analysis; format: ADME, organism-based
[20] = Drug level in Jcl-ICR mouse plasma at 100 mg/kg, ip measured at 2 hr by LC/MS/MS analysis; format: ADME, organism-based
[21] = Drug level in Jcl-ICR mouse brain at 100 mg/kg, ip measured at 1 hr by LC/MS/MS analysis; format: ADME, organism-based; conditions: read-out: Drug uptake
[22] = Drug level in Jcl-ICR mouse brain at 100 mg/kg, ip measured at 2 hr by LC/MS/MS analysis; format: ADME, organism-based; conditions: read-out: Drug uptake
[23] = Brain to plasma partition coefficient, Kp of the compound in Jcl-ICR mouse at 100 mg/kg, ip measured at 0.5 hrs by LC/MS/MS analysis; format: ADME, organism-based
[24] = Brain to plasma partition coefficient, Kp of the compound in Jcl-ICR mouse at 100 mg/kg, ip measured at 1 hr by LC/MS/MS analysis; format: ADME, organism-based
[25] = Brain to plasma partition coefficient, Kp of the compound in Jcl-ICR mouse at 100 mg/kg, ip measured at 2 hrs by LC/MS/MS analysis; format: ADME, organism-based
[26] = Unbound brain-to-plasma concentration ratio in Jcl-ICR mouse at 100 mg/kg, ip measured at 0.5 hrs by LC/MS/MS analysis; format: ADME, organism-based; conditions: read-out: K(p,uu,brain)
[27] = Unbound brain-to-plasma concentration ratio in Jcl-ICR mouse at 100 mg/kg, ip measured at 1 hr by LC/MS/MS analysis; format: ADME, organism-based; conditions: read-out: K(p,uu,brain)
Mus musculus [28] = experiment: In-vivo inhibition of ALK in ip dosed ICR mouse hippocampus assessed as reduction in phosphorylated ALK level after 1 hr by Western blot analysis; format: functional, organism-based
Mus musculus [29] = experiment: In-vivo inhibition of ALK in ICR mouse prefrontal cortex assessed as reduction in phosphorylated ALK level at 100 mg/kg, ip after 1 hr by Western blot analysis; format: functional, organism-based

Chain of ALK tyrosine kinase receptor (Q9UM73 whole entry, the tested form may be a part): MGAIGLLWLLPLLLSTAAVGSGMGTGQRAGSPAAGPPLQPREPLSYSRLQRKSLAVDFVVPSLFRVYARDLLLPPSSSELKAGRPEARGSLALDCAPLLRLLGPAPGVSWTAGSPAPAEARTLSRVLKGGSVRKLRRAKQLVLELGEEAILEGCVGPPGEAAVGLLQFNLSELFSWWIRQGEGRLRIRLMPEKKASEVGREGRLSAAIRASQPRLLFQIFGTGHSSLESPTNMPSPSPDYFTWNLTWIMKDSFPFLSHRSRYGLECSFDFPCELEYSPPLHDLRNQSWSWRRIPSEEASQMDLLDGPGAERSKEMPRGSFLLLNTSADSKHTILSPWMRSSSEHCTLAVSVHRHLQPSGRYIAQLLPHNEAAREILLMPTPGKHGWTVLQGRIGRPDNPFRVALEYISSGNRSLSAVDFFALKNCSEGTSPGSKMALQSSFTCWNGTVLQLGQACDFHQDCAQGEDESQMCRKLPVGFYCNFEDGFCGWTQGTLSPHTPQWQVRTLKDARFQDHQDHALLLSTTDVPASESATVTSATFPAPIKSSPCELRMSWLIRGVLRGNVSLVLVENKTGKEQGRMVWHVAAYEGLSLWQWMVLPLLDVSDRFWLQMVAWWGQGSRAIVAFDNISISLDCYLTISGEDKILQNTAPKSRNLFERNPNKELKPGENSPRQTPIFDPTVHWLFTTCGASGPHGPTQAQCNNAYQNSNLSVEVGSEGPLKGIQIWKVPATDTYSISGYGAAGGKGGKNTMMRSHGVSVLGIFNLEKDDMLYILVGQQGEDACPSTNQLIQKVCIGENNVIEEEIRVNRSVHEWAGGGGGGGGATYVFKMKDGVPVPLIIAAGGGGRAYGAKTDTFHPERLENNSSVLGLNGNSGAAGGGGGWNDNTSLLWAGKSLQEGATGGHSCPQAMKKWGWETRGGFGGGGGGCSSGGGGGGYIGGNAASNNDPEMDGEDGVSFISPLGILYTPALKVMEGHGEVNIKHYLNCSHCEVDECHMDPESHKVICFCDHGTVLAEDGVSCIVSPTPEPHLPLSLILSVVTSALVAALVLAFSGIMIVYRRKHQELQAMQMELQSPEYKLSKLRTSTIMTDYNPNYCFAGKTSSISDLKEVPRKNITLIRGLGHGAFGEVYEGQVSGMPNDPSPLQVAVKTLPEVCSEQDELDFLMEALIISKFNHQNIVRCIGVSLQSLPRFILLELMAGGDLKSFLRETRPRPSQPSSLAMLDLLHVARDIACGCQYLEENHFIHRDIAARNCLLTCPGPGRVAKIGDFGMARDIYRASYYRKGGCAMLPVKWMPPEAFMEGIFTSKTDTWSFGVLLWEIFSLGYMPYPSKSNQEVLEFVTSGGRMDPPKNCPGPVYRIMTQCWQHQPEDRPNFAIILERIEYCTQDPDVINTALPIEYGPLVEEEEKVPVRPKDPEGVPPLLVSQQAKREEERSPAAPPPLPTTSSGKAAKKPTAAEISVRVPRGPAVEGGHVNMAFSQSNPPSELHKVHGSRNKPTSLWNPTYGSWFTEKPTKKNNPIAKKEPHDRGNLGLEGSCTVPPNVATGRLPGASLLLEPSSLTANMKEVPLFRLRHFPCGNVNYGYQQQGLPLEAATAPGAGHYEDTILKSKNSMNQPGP
Chain of Interleukin-1 receptor-associated kinase 4 (Homo sapiens) (Q9NWZ3 whole entry): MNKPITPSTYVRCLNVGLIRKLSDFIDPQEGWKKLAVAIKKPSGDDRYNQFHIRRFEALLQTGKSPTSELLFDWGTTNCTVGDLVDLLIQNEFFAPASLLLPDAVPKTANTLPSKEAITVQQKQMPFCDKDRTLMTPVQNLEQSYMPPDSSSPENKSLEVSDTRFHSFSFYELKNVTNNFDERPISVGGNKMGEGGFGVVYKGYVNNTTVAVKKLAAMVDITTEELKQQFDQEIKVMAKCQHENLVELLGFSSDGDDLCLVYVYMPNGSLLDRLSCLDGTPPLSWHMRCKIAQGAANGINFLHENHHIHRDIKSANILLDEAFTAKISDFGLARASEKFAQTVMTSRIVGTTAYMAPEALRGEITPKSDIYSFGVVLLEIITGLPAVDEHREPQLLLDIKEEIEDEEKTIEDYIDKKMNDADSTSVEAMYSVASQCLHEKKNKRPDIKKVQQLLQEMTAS
Chain of Insulin receptor (Homo sapiens) (P06213 28-758 limits assumed): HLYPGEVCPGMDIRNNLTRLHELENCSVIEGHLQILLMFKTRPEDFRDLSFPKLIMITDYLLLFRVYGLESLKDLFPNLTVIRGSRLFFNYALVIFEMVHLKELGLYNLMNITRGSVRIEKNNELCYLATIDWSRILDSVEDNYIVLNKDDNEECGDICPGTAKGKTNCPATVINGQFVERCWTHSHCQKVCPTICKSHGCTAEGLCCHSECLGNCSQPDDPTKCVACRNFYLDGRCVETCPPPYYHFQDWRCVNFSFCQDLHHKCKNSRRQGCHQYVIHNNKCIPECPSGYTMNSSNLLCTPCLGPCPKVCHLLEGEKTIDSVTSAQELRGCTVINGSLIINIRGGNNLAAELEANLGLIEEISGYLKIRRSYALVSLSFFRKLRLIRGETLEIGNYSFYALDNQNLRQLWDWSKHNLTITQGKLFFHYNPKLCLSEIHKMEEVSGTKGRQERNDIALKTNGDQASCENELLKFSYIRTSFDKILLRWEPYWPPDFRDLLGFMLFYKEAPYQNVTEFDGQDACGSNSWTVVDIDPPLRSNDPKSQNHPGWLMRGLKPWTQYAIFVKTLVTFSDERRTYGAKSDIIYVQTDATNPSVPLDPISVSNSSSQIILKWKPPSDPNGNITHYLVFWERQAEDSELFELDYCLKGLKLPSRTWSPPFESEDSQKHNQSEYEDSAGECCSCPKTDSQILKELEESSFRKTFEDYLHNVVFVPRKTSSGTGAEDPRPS
Chain of Insulin receptor (Homo sapiens) (P06213 763-1382 limits assumed): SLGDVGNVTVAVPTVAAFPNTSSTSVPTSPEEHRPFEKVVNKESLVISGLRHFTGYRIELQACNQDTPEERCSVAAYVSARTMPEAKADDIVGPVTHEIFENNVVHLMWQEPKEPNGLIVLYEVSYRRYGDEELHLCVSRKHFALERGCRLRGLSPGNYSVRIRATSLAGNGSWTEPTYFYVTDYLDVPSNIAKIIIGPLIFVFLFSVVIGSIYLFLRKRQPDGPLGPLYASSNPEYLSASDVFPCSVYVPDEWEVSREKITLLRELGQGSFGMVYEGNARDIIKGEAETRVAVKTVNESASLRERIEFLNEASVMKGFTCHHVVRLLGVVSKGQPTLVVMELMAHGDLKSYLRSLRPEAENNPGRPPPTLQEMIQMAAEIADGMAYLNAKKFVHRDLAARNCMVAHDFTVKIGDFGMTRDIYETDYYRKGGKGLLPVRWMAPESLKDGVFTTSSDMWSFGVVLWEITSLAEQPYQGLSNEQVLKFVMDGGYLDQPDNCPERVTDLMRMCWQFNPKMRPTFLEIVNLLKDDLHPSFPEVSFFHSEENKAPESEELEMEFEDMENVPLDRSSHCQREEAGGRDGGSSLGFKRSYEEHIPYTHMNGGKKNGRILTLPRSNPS
Chain of Cell division cycle 7-related protein kinase (Homo sapiens) (O00311 whole entry, looked up, canonical isoform): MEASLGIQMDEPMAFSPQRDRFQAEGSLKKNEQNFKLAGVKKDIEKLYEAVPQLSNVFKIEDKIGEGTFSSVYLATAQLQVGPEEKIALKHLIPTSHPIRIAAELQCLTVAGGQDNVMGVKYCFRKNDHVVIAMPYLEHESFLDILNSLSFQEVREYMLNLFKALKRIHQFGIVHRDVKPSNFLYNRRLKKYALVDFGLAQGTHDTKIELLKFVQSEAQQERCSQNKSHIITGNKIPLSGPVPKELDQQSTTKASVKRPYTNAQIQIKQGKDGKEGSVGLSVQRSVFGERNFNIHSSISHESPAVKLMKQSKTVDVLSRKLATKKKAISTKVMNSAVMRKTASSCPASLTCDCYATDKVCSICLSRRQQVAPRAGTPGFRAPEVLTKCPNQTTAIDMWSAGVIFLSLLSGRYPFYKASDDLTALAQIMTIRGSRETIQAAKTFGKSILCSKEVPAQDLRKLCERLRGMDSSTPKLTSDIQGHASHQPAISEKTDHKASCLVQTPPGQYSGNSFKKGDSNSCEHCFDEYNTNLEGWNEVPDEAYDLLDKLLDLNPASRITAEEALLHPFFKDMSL

inhibition [1]: 2% | IC50 [2]: 2.9 nM | IC50 [3]: 2600 nM | efflux ratio at 2 h, 10 µM (MDR1 (ABCB1, P-gp)): 1 | IC50 (Focal adhesion kinase 1 [4]): 25 nM | Ratio IC50 (Homo sapiens): 10 | inhibition (Focal adhesion kinase 1 [5]): 83% | inhibition [6]: 21% | inhibition [7]: 12% | inhibition [8]: 9% | inhibition [9]: 6% | inhibition [10]: 3% | inhibition [11]: -1% | inhibition [12]: -2% | inhibition [13]: -2% | inhibition [14]: -5% | inhibition [15]: -7% | inhibition [16]: -8% | Fu [17]: 0.017% | concentration at 0.5 h [18]: 26200 ng/mL | concentration at 1 h [19]: 26200 ng/mL | concentration at 2 h [20]: 11600 ng/mL | concentration at 1 h [21]: 33400 ng/mL | concentration at 2 h [22]: 10300 ng/mL | Kp at 0.5 h [23]: 1.26 | Kp at 1 h [24]: 1.28 | Kp at 2 h [25]: 0.515 | Kp uu at 0.5 h [26]: 0.27 | Kp uu at 1 h [27]: 0.27
Compound: Cc1cc(-n2cc(C(=O)N3CCO[C@@H](C)C3)c3ccc(O[C@@H](C)c4ccc(F)cn4)nc32)n[nH]1
inhibition (Mus musculus [28]): Dose-dependent effect | inhibition (Mus musculus [29]): Active
